Results from publication PMC11589570, “Critical assessment of LC3/GABARAP ligands used for degrader development and ligandability of LC3/GABARAP binding pockets” (Nature Communications, 2024).
Several values for one entry are separate records, joined by “and”; a condition that tells them apart may be missing. Identical values can stand only once.

Legend:
Assay in all cases: FP assay with Cy5-labelled p62 LIR tracer (protein titration and tracer displacement)
[1] = biological target: LC3C (Homo sapiens, UniProt Q9BXW4); format: binding; details: for normalized FP signal, p62 LIR tracer displacement: LC3C, listed as AN2; for compound titration LC3C (displacement curve, FP signal): two replicate columns per compound
[2] = biological target: GABARAP (Homo sapiens, UniProt O95166); format: binding; details: for normalized FP signal, p62 LIR tracer displacement: GABARAP; for compound titration GABARAP (displacement curve, FP signal): two replicate columns per compound
[3] = biological target: GABARAPL1 (Homo sapiens, UniProt Q9H0R8); format: binding; details: for normalized FP signal, p62 LIR tracer displacement: GABARAPL1; for compound titration GABARAPL1 (displacement curve, FP signal): two replicate columns per compound; for FP tracer displacement curve signal (compound titration): duplicate values
[4] = biological target: GABARAPL2 (Homo sapiens, UniProt P60520); details: GABARAPL2
[5] = log10 concentration [M] -3.82391
[6] = log10 concentration [M] -4.1549
[7] = log10 concentration [M] -4.60206
[8] = log10 concentration [M] -5.30103
[9] = log10 concentration [M] -5.69897
[10] = log10 concentration [M] -6.22185
[11] = log10 concentration [M] -6.69897
[12] = log10 concentration [M] -7.30103
[13] = log10 concentration [M] -7.79588
[14] = log10 concentration [M] -8.08092
[15] = log10 concentration [M] -3.82391, listed as AN2
[16] = log10 concentration [M] -4.1549, listed as AN2
[17] = log10 concentration [M] -4.60206, listed as AN2
[18] = log10 concentration [M] -5, listed as AN2
[19] = log10 concentration [M] -5.30103, listed as AN2
[20] = log10 concentration [M] -5.69897, listed as AN2
[21] = log10 concentration [M] -6.22185, listed as AN2
[22] = log10 concentration [M] -6.69897, listed as AN2
[23] = log10 concentration [M] -7.79588, listed as AN2
[24] = log10 concentration [M] -8.08092, listed as AN2
[25] = log10 concentration [M] -7.30103, listed as AN2

Chain of LC3C (Q9BXW4 1-126): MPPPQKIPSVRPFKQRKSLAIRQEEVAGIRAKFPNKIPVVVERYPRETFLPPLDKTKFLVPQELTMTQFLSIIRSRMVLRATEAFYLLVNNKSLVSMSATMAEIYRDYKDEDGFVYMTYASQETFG
Chain of GABARAPL2 (P60520 whole entry): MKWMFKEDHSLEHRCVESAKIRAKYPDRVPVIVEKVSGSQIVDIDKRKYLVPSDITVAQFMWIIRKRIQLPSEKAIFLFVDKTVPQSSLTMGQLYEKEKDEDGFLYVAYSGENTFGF
Chain of GABARAP (O95166 1-116): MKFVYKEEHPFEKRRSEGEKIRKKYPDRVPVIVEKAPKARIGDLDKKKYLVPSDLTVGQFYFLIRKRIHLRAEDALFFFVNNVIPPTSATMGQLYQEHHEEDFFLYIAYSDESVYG
Chain of GABARAPL1 (Q9H0R8 whole entry): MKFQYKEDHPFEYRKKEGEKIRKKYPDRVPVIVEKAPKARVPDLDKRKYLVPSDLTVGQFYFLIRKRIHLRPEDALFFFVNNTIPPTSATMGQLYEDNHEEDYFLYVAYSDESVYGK

normalized FP signal, p62 LIR tracer displacement [1, 5]: 84.2 and 87 | normalized FP signal, p62 LIR tracer displacement [1, 6]: 90.8 and 97 | normalized FP signal, p62 LIR tracer displacement [1, 7]: 92.6 and 96.6 | normalized FP signal, p62 LIR tracer displacement ([1]; log10 concentration [M] -5): 91.6 and 99.8 | normalized FP signal, p62 LIR tracer displacement [1, 8]: 95.6 and 98.4 | normalized FP signal, p62 LIR tracer displacement [1, 9]: 90.8 and 90.6 | normalized FP signal, p62 LIR tracer displacement [1, 10]: 97.2 and 95.2 | normalized FP signal, p62 LIR tracer displacement [1, 11]: 99.8 and 97.8 | normalized FP signal, p62 LIR tracer displacement [1, 12]: 98 and 96.2 | normalized FP signal, p62 LIR tracer displacement [1, 13]: 91.6 and 93.8 | normalized FP signal, p62 LIR tracer displacement [1, 14]: 99 and 100.4 | compound titration LC3C (displacement curve, FP signal) [1, 5]: 84.2 and 87 | compound titration LC3C (displacement curve, FP signal) [1, 6]: 90.8 and 97 | compound titration LC3C (displacement curve, FP signal) [1, 7]: 92.6 and 96.6 | compound titration LC3C (displacement curve, FP signal) ([1]; log10 concentration [M] -5): 91.6 and 99.8 | compound titration LC3C (displacement curve, FP signal) [1, 8]: 95.6 and 98.4 | compound titration LC3C (displacement curve, FP signal) [1, 9]: 90.8 and 90.6 | compound titration LC3C (displacement curve, FP signal) [1, 10]: 97.2 and 95.2 | compound titration LC3C (displacement curve, FP signal) [1, 11]: 99.8 and 97.8 | compound titration LC3C (displacement curve, FP signal) [1, 12]: 98 and 96.2 | compound titration LC3C (displacement curve, FP signal) [1, 13]: 91.6 and 93.8 | compound titration LC3C (displacement curve, FP signal) [1, 14]: 99 and 100.4 | normalized FP signal, p62 LIR tracer displacement [2, 15]: 92.5862 and 91.2069 | normalized FP signal, p62 LIR tracer displacement [2, 16]: 93.9655 and 97.069 | normalized FP signal, p62 LIR tracer displacement [2, 17]: 97.069 and 101.207 | normalized FP signal, p62 LIR tracer displacement [2, 18]: 96.5517 and 105.172 | normalized FP signal, p62 LIR tracer displacement [2, 19]: 96.8966 and 99.8276 | normalized FP signal, p62 LIR tracer displacement [2, 20]: 95.5172 and 91.0345 | normalized FP signal, p62 LIR tracer displacement [2, 21]: 96.2069 and 97.7586 | normalized FP signal, p62 LIR tracer displacement [2, 22]: 98.1034 and 96.7241 | normalized FP signal, p62 LIR tracer displacement [2, 12]: 99.8276 | normalized FP signal, p62 LIR tracer displacement [2, 23]: 98.1034 and 97.931 | normalized FP signal, p62 LIR tracer displacement [2, 14]: 97.5862 | normalized FP signal, p62 LIR tracer displacement [2, 24]: 104.655 | compound titration GABARAP (displacement curve, FP signal) [2, 5]: 92.5862 and 91.2069 | compound titration GABARAP (displacement curve, FP signal) [2, 6]: 93.9655 and 97.069 | compound titration GABARAP (displacement curve, FP signal) [2, 7]: 97.069 and 101.207 | compound titration GABARAP (displacement curve, FP signal) ([2]; log10 concentration [M] -5): 96.5517 and 105.172 | compound titration GABARAP (displacement curve, FP signal) [2, 8]: 96.8966 and 99.8276 | compound titration GABARAP (displacement curve, FP signal) [2, 9]: 95.5172 and 91.0345 | compound titration GABARAP (displacement curve, FP signal) [2, 10]: 96.2069 and 97.7586 | compound titration GABARAP (displacement curve, FP signal) [2, 11]: 98.1034 and 96.7241 | compound titration GABARAP (displacement curve, FP signal) [2, 12]: 99.8276 | compound titration GABARAP (displacement curve, FP signal) [2, 13]: 98.1034 and 97.931 | compound titration GABARAP (displacement curve, FP signal) [2, 14]: 97.5862 and 104.655 | normalized FP signal, p62 LIR tracer displacement [3, 15]: 90.5714 and 94.4286 | normalized FP signal, p62 LIR tracer displacement [3, 16]: 97.5714 and 96.8571 | normalized FP signal, p62 LIR tracer displacement [3, 17]: 97.1429 and 99 | normalized FP signal, p62 LIR tracer displacement [3, 18]: 102.429 and 102.286 | normalized FP signal, p62 LIR tracer displacement [3, 19]: 100.429 and 101.143 | normalized FP signal, p62 LIR tracer displacement [3, 9]: 94.4286 | normalized FP signal, p62 LIR tracer displacement [3, 21]: 98.5714 and 100.714 | normalized FP signal, p62 LIR tracer displacement [3, 22]: 98.7143 and 100.143 | normalized FP signal, p62 LIR tracer displacement [3, 25]: 102 and 99.5714 | normalized FP signal, p62 LIR tracer displacement [3, 23]: 98.1429 and 99.4286 | normalized FP signal, p62 LIR tracer displacement [3, 24]: 98.8571 and 103.429 | compound titration GABARAPL1 (displacement curve, FP signal) [3, 5]: 90.5714 and 94.4286 | compound titration GABARAPL1 (displacement curve, FP signal) [3, 6]: 97.5714 and 96.8571 | compound titration GABARAPL1 (displacement curve, FP signal) [3, 7]: 97.1429 and 99 | compound titration GABARAPL1 (displacement curve, FP signal) ([3]; log10 concentration [M] -5): 102.429 and 102.286 | FP tracer displacement curve signal (compound titration) [3, 9]: 94.4286 | FP tracer displacement curve signal (compound titration) [3, 21]: 98.5714 and 100.714 | FP tracer displacement curve signal (compound titration) [3, 22]: 98.7143 and 100.143 | FP tracer displacement curve signal (compound titration) [3, 25]: 102 and 99.5714 | FP tracer displacement curve signal (compound titration) [3, 23]: 98.1429 and 99.4286 | FP tracer displacement curve signal (compound titration) [3, 24]: 98.8571 and 103.429 | normalized FP signal, p62 LIR tracer displacement [4, 15]: 88.4 and 85.2 | normalized FP signal, p62 LIR tracer displacement [4, 16]: 94.4 and 106.4 | normalized FP signal, p62 LIR tracer displacement [4, 7]: 106 | normalized FP signal, p62 LIR tracer displacement [4, 17]: 104.4 | normalized FP signal, p62 LIR tracer displacement [4, 18]: 98 and 106.4 | normalized FP signal, p62 LIR tracer displacement [4, 19]: 104 and 108.8 | normalized FP signal, p62 LIR tracer displacement [4, 20]: 92.8 and 98.4 | normalized FP signal, p62 LIR tracer displacement [4, 21]: 104 and 94.4 | normalized FP signal, p62 LIR tracer displacement [4, 11]: 100 | normalized FP signal, p62 LIR tracer displacement [4, 22]: 104.4 | normalized FP signal, p62 LIR tracer displacement [4, 12]: 116.4 | normalized FP signal, p62 LIR tracer displacement [4, 25]: 100.8 | normalized FP signal, p62 LIR tracer displacement [4, 23]: 103.2 and 104 | normalized FP signal, p62 LIR tracer displacement [4, 14]: 105.2 | normalized FP signal, p62 LIR tracer displacement [4, 24]: 104.4
Compound: O=c1cc(-c2ccccc2)c2c(O)cc(O)cc2o1 [compound 2]
